Legend:
[1] = target: human mTOR enzyme (Homo sapiens, UniProt P42345); assay: HTRF mTOR enzyme (kinase) assay; format: biochemical; conditions: rated class; 5 μM ATP, 0.2 μM GST-S6K; read-out: hMTOR IC50
[2] = test system: mTORC2 activity: phosphorylated AKT Ser473 (pAKT S473) in PC3 cells; assay: mTOR target engagement assay, immunofluorescent cell-based, mTORC2 readout; conditions: Homo sapiens, PC-3, 1.5 h, rated class, 90 min treatment
Outline: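 Read-out is immunofluorescence intensity, normalized to DMSO-only wells and fitted to a sigmoidal Hill equation for IC50. The mTORC1 arm probes phospho-4E-BP1 Thr37/46 and the mTORC2 arm phospho-AKT Ser473.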

[3] = test system: mTORC1 activity: phosphorylated 4E-BP1 Thr37/46 (p4E-BP1 Thr37/46) in PC3 cells; assay: mTOR target engagement assay, immunofluorescent cell-based, mTORC1 readout; conditions: Homo sapiens, PC-3, 1.5 h, rated class, 90 min treatment, read-out: P4EBP1 IC50
Protocol: The target engagement of mTOR kinase inhibitors was evaluated using an immunofluorescent cell-based assay. In this assay, inhibition of mTORC1 activity was measured by the reduction in the level of phosphorylated 4E-BP1Thr37/46 (p4E-BP1 Thr37/46), and inhibition of mTORC2 activity was measured by the reduction of phosphorylated AKTSer473 (pAKT S473).
PC3 cells (prostate tumor cell-line that contains a mutation in the tumor suppressor PTEN, that promotes the phosphorylation and activation of AKT and 4E-BP1) were used in the immunofluorescence assay. PC3 cells were seeded on 384 well plates (black clear bottom, Matrix #4332) overnight. PC3 cells were then treated with 40 μl of the serially diluted test compounds (in 5% fetal bovine serum, F12 medium containing 0.25% DMSO) for ninety minutes at 37° C. The test compound solution was removed, and the plates were washed gently two times with 25 μl phosphate buffered saline (PBS). The cells were fixed by adding 25 μl of Prefer reagent (from Anatech LTD, Cat#414, a glyoxal fixative for fixing proteins within a cell) for sixty minutes followed by three washes with PBS. 5% Goat serum in PBS/0.3% Triton was used to block non-specific binding (60 minutes).
The primary antibodies targeting pAKT S473 and p4E-BP1 Thr37/46 were diluted into PBS/0.3% Triton and incubated with the cells overnight at 4° C. The antibodies targeting pAKTS473 (Cat#4085, Cell signaling) and p4E-BP1 Thr37/46 (Cat#2855, Cell signaling) were used at a 1:100 dilution. Plates were washed three times with PBS/0.1% Tween 20 before adding the secondary antibody at a 1:200 dilution. (goat anti-rabbit containing a fluorescent label, Alexa Fluor 488, Cat#A11008, Invitrogen) in PBS/0.3% Triton for 60 minutes.
Finally, the plates were washed three times with PBS/0.1% Tween 20 and the fluorescent intensity was read using an Analyst HT from Molecular Devices. The fluorescent intensity values from the serially diluted compound treatment group were analyzed using the Xlfit 4 program ([…]) (Formula 205: Y=Bottom+(Top-Bottom)/(1+(IC50/X)^Hillslope) to generate the IC50 value. Where Top is the maximum signal without Compound (+DMSO only) and Bottom represents maximum inhibition. Y is the fluorescence at some compound concentration. The control used to determine the fluorescent intensities for 100% pAKT S473 or 100% phosphorylated p4E-BP1 Thr37/46 were measured from untreated wells that contained only DMSO, instead of test compound.

Sequence of human mTOR enzyme (P42345 1360-2549 limits assumed): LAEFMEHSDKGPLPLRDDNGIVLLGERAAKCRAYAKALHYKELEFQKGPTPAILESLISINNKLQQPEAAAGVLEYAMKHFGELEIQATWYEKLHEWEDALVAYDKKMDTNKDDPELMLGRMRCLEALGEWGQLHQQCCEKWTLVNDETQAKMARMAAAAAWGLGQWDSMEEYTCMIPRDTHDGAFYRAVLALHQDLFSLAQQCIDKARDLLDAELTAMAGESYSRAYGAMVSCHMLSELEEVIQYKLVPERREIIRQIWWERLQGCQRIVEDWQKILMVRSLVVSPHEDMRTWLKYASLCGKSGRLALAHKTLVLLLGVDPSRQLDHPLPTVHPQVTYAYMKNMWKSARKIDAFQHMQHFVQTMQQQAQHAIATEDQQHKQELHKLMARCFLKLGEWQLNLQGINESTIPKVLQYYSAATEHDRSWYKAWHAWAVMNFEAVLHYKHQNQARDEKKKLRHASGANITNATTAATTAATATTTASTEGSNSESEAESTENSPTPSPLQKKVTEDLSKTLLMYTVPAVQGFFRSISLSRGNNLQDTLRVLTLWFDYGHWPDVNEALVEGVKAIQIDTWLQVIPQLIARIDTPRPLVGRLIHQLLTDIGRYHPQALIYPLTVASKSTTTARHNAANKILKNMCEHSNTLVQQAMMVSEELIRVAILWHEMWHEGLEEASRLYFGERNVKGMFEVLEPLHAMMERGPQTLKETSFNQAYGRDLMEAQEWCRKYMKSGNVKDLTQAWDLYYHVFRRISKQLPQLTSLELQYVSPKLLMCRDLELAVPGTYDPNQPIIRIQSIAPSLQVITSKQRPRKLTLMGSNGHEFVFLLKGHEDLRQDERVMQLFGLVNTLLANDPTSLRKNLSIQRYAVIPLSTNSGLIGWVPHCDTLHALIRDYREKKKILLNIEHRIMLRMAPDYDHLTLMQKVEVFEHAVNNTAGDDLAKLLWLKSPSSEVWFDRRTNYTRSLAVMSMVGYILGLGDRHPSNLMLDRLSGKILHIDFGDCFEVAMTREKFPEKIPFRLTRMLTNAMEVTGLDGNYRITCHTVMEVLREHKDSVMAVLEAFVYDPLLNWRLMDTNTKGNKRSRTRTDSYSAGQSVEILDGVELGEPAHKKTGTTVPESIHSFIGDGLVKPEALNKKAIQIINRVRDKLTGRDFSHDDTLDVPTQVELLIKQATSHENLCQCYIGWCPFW

SMILES	IC50 [1] [nM]	IC50 [2] [nM]	IC50 [3] [nM]
CC(=O)c1c(C2CCC(O)(CO)CC2)nc2c(-c3cnc(-c4ccccc4)nc3)cnn2c1N (stereo not shown) [Compound 158, 1-(7-amino-5-(4-hydroxy-4-(hydroxymethyl)-cyclohexyl)-3-(2-phenylpyrimidin-5-yl)pyrazolo[1,5-a]pyrimidin-6-yl)ethanone]	1 to 100	100 to 1000	100 to 1000
CC(=O)c1c(C2CCC(O)(CO)CC2)nc2c(-c3ccc(-c4nccs4)nc3)cnn2c1N (stereo not shown) [Compound 156, 1-(7-amino-5-(4-hydroxy-4-(hydroxymethyl)-cyclohexyl)-3-(6-(thiazol-2-yl)pyridin-3-yl)pyrazolo[1,5-a]pyrimidin-6-yl)ethanone]	1 to 100	100 to 1000	100 to 1000
COCCOCC1(C(=O)O)CCC(c2nc3c(-c4ccc(-c5ccccc5)nc4)cnn3c(N)c2C(C)=O)CC1 (stereo not shown) [Compound 24, 4-(6-acetyl-7-amino-3-(6-phenylpyridin-3-yl)pyrazolo[1,5-a]pyrimidin-5-yl)-1-((2-methoxyethoxy)methyl)cyclohexane-carboxylic acid]	1 to 100	100 to 1000	
Nc1c(Br)c([C@H]2CC[C@@](OCCN3CCOCC3)(C(=O)O)CC2)nc2c(-c3ccc(-c4ccccc4)nc3)cnn12 [Compound 65, (1R,4R)-4-(7-amino-6-bromo-3-(6-phenylpyridin-3-yl)pyrazolo[1,5-a]pyrimidin-5-yl)-1-(2-morpholinoethoxy) cyclohexanecarboxylic acid]	1 to 100	1000 to 2000	
COCCO[C@]1(C(=O)O)CC[C@@H](c2nc3c(-c4ccc(-c5nccs5)nc4)cnn3c(N)c2C(C)=O)CC1 [Compound 60, (1R,4R)-4-(6-acetyl-7-amino-3-(6-(thiazol-2-yl)pyridin-3-yl)pyrazolo[1,5-a]pyrimidin-5-yl)-1-(2-methoxyethoxy) cyclohexanecarboxylic acid]	1 to 100	100 to 1000	
COC[C@]1(C(=O)O)CC[C@@H](c2nc3c(-c4ccc(-c5ccccc5)nc4)cnn3c(N)c2C(C)=O)CC1 [Compound 19, (1S,4S)-4-(6-acetyl-7-amino-3-(6-phenylpyridin-3-yl)pyrazolo[1,5-a]pyrimidin-5-yl)-1-(methoxymethyl)-cyclohexane-carboxylic acid]	1 to 100	100 to 1000	
CC(=O)c1c(C2CCC(O)(CO)CC2)nc2c(-c3ccc(-c4cnn(C)c4)nc3)cnn2c1N (stereo not shown) [Compound 145, 1-(7-amino-5-(4-hydroxy-4-(hydroxymethyl)-cyclohexyl)-3-(6-(1-methyl-1H-pyrazol-4-yl)pyridin-3-yl)pyrazolo[1,5-a]pyrimidin-6-yl)ethanone]	1 to 100	1000 to 2000	
COCCO[C@]1(C(=O)O)CC[C@@H](c2nc3c(-c4cnn(-c5ccccc5)c4)cnn3c(N)c2C(C)=O)CC1 [Compound 55, (1R,4R)-4-(6-acetyl-7-amino-3-(1-phenyl-1H-pyrazol-4-yl)pyrazolo[1,5-a]pyrimidin-5-yl)-1-(2-methoxyethoxy)cyclohexanecarboxylic acid]	1 to 100	100 to 1000	
CC(=O)c1c(C2CCC(O)(CO)CC2)nc2c(-c3cnn(-c4cscn4)c3)cnn2c1N (single isomer, unassigned) [Compound 152, 1-(7-amino-5-(4-hydroxy-4-(hydroxymethyl)-cyclohexyl)-3-(1-(thiazol-4-yl)-1H-pyrazol-4-yl)pyrazolo[1,5-a]pyrimidin-6-yl)ethanone]	1 to 100	1000 to 2000	
CC(=O)c1c(C2CCC(O)(CO)CC2)nc2c(-c3cnn(-c4ccccc4)c3)cnn2c1N (stereo not shown) [Compound 141, 1-(7-amino-5-(4-hydroxy-4-(hydroxymethyl)cyclohexyl)-3-(1-phenyl-1H-pyrazol-4-yl)pyrazolo[1,5-a]pyrimidin-6-yl)ethanone]	1 to 100	1 to 100	
CO[C@]1(C(=O)O)CC[C@@H](c2nc3c(-c4cnc5ccc(F)cc5c4)cnn3c(N)c2Br)CC1 [Compound 33, (1R,4R)-4-(7-amino-6-bromo-3-(6-fluoroquinolin-3-yl)pyrazolo[1,5-a]pyrimidin-5-yl)-1-methoxycyclohexane-carboxylic acid]	1 to 100	1000 to 2000	
COCCO[C@]1(C(=O)O)CC[C@@H](c2nc3c(-c4ccc(-c5ccccc5)nc4)cnn3c(N)c2SC)CC1 [Compound 63, (1R,4R)-4-(7-amino-6-(methylthio)-3-(6-phenylpyridin-3-yl)pyrazolo[1,5-a]pyrimidin-5-yl)-1-(2-methoxyethoxy)cyclohexanecarboxylic acid]	1 to 100	1000 to 2000	
Nc1c(Br)c(C2CCC(O)(CO)CC2)nc2c(-c3cnc4ccc(F)cc4c3)cnn12 (stereo not shown) [Compound 136, 4-(7-amino-6-bromo-3-(6-fluoroquinolin-3-yl)pyrazolo[1,5-a]pyrimidin-5-yl)-1-(hydroxymethyl)cyclohexanol]	1 to 100	100 to 1000	
Nc1c(Br)c(C2CCC(N)(C(=O)O)CC2)nc2c(-c3ccc(-c4ccccc4)nc3)cnn12 (stereo not shown) [Compound 73, 1-amino-4-(7-amino-6-bromo-3-(6-phenylpyridin-3-yl)pyrazolo[1,5-a]pyrimidin-5-yl)cyclohexanecarboxylic acid]	1 to 100	5000 to 15000	
Nc1c(Br)c([C@H]2CC[C@](F)(C(=O)O)CC2)nc2c(-c3ccc(-c4ccccc4)nc3)cnn12 [Compound 3, (1S,4S)-4-(7-amino-6-bromo-3-(6-phenylpyridin-3-yl)pyrazolo[1,5-a]pyrimidin-5-yl)-1-fluorocyclohexane-carboxylic acid]	1 to 100	1000 to 2000	
CC(=O)c1c(N)n2ncc(-c3ccc(-c4ccccc4)nc3)c2nc1[C@H]1CC[C@@](F)(C(=O)O)CC1 [Compound 17, (1R,4R)-4-(6-acetyl-7-amino-3-(6-phenylpyridin-3-yl)pyrazolo[1,5-a]pyrimidin-5-yl)-1-fluorocyclohexane-carboxylic acid]	1 to 100	100 to 1000	
COC1(C#N)CCC(c2nc3c(-c4ccc(-c5ccccc5)nc4)cnn3c(N)c2Br)CC1 (stereo not shown) [Compound 75, 4-(7-amino-6-bromo-3-(6-phenylpyridin-3-yl)pyrazolo[1,5-a]pyrimidin-5-yl)-1-methoxycyclohexane-carbonitrile]	1 to 100	2000 to 5000	
COCCO[C@]1(C(=O)O)CC[C@H](c2nc3c(-c4cnn(-c5ccccc5)c4)cnn3c(N)c2C(C)=O)CC1 [Compound 54, (1S,4S)-4-(6-acetyl-7-amino-3-(1-phenyl-1H-pyrazol-4-yl)pyrazolo[1,5-a]pyrimidin-5-yl)-1-(2-methoxyethoxy)cyclohexanecarboxylic acid]	1 to 100	5000 to 15000	
COc1ccc(-c2ccc(-c3cnn4c(N)c(C(C)=O)c(C5CCC(O)(CO)CC5)nc34)cn2)cn1 (single isomer, unassigned) [Compound 146, 1-(7-amino-5-(4-hydroxy-4-(hydroxymethyl)-cyclohexyl)-3-(6′-methoxy-2,3′-bipyridin-5-yl)pyrazolo[1,5-a]pyrimidin-6-yl)ethanone]	1 to 100	2000 to 5000	
CC(=O)c1c(C2CCC(O)(CO)CC2)nc2c(-c3ccc(-c4cncs4)nc3)cnn2c1N (stereo not shown) [Compound 157, 1-(7-amino-5-(4-hydroxy-4-(hydroxymethyl)-cyclohexyl)-3-(6-(thiazol-5-yl)pyridin-3-yl)pyrazolo[1,5-a]pyrimidin-6-yl)ethanone]	1 to 100	2000 to 5000	
COCCOC[C@]1(C(=O)O)CC[C@@H](c2nc3c(-c4ccc(-c5ccccc5)nc4)cnn3c(N)c2Br)CC1 [Compound 12, (1S,4S)-4-(7-amino-6-bromo-3-(6-phenylpyridin-3-yl)pyrazolo[1,5-a]pyrimidin-5-yl)-1-((2-methoxyethoxy)methyl)cyclohexane-carboxylic acid]	1 to 100	2000 to 5000	
COC[C@]1(C(=O)O)CC[C@@H](c2nc3c(-c4cnc5ccc(F)cc5c4)cnn3c(N)c2Br)CC1 [Compound 8, (1S,4S)-4-(7-amino-6-bromo-3-(6-fluoroquinolin-3-yl)pyrazolo[1,5-a]pyrimidin-5-yl)-1-(methoxymethyl)-cyclohexane-carboxylic acid]	1 to 100	5000 to 15000	
